Results published in patent publication US10765114B2, “4-amino-6-(pyridyl and 2-substitutedphenyl)-picolinates and 6-amino-2-(pyridyl and 2-substitutedphenyl)-pyrimidine-4-carboxylates and their use as herbicides” (Dow AgroSciences LLC, priority 2013, dated 2020).

These compounds were tested on Key Broadleaf Weed and Crop Species (assay: Post-Emergent Test II (Table 5)). Details: Abutilon theophrasti, post-emergence, 336 h, ABUTH: velvetleaf (Abutilon theophrasti), application rate 70 (kg ai/ha; footnote: g ai/ha), read-out: Visual Growth Reduction (%) 14 Days After Application ABUTH.
Assay type: in vivo
In short: (§1)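 Post-emergence greenhouse spray, 1st-2nd true leaf stage; track sprayer, 187 L/ha; acetone/DMSO stock diluted in aqueous acetone/IPA/DMSO with Atplus 411F and Triton X-155; rates 1× to 1/16×; subirrigated; visual injury 0 (none) to 100% (complete kill) at 14 days.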

Row | Structure (SMILES) | pest or weed control at 70 g/ha [%]
1 | COc1c(-c2cc(N)c(Cl)c(C(=O)O)n2)ccc(Cl)c1F [Compound 84, 4-amino-3-chloro-6-(4-chloro-3-fluoro-2-methoxyphenyl)picolinic acid] | 95 to 100

Same assay, conditions: Abutilon theophrasti, post-emergence, 336 h, ABUTH: velvetleaf (Abutilon theophrasti), application rate 140 (kg ai/ha; footnote: g ai/ha), read-out: Visual Growth Reduction (%) 14 Days After Application ABUTH

Row | Structure (SMILES) | pest or weed control at 140 g/ha [%]
2 | COc1c(-c2cc(N)c(Cl)c(C(=O)O)n2)ccc(Cl)c1F [Compound 84, 4-amino-3-chloro-6-(4-chloro-3-fluoro-2-methoxyphenyl)picolinic acid] | 95 to 100

Same assay, conditions: Amaranthus retroflexus, post-emergence, 336 h, AMARE: redroot pigweed (Amaranthus retroflexus), application rate 70 (kg ai/ha; footnote: g ai/ha), read-out: Visual Growth Reduction (%) 14 Days After Application AMARE

Row | Structure (SMILES) | pest or weed control at 70 g/ha [%]
3 | COc1c(-c2cc(N)c(Cl)c(C(=O)O)n2)ccc(Cl)c1F [Compound 84, 4-amino-3-chloro-6-(4-chloro-3-fluoro-2-methoxyphenyl)picolinic acid] | 95 to 100

Same assay, conditions: Amaranthus retroflexus, post-emergence, 336 h, AMARE: redroot pigweed (Amaranthus retroflexus), application rate 140 (kg ai/ha; footnote: g ai/ha), read-out: Visual Growth Reduction (%) 14 Days After Application AMARE

Row | Structure (SMILES) | pest or weed control at 140 g/ha [%]
4 | COc1c(-c2cc(N)c(Cl)c(C(=O)O)n2)ccc(Cl)c1F [Compound 84, 4-amino-3-chloro-6-(4-chloro-3-fluoro-2-methoxyphenyl)picolinic acid] | 95 to 100

Same assay, conditions: Brassica napus, post-emergence, 336 h, BRSSS: oilseed rape, canola (Brassica napus), application rate 70 (kg ai/ha; footnote: g ai/ha), read-out: Visual Growth Reduction (%) 14 Days After Application BRSSS

Row | Structure (SMILES) | pest or weed control at 70 g/ha [%]
5 | COc1c(-c2cc(N)c(Cl)c(C(=O)O)n2)ccc(Cl)c1F [Compound 84, 4-amino-3-chloro-6-(4-chloro-3-fluoro-2-methoxyphenyl)picolinic acid] | 95 to 100

Same assay, conditions: Brassica napus, post-emergence, 336 h, BRSSS: oilseed rape, canola (Brassica napus), application rate 140 (kg ai/ha; footnote: g ai/ha), read-out: Visual Growth Reduction (%) 14 Days After Application BRSSS

Row | Structure (SMILES) | pest or weed control at 140 g/ha [%]
6 | COc1c(-c2cc(N)c(Cl)c(C(=O)O)n2)ccc(Cl)c1F [Compound 84, 4-amino-3-chloro-6-(4-chloro-3-fluoro-2-methoxyphenyl)picolinic acid] | 95 to 100

Same assay, conditions: Chenopodium album, post-emergence, 336 h, CHEAL: lambsquarters (Chenopodium album), application rate 70 (kg ai/ha; footnote: g ai/ha), read-out: Visual Growth Reduction (%) 14 Days After Application CHEAL

Row | Structure (SMILES) | pest or weed control at 70 g/ha [%]
7 | COc1c(-c2cc(N)c(Cl)c(C(=O)O)n2)ccc(Cl)c1F [Compound 84, 4-amino-3-chloro-6-(4-chloro-3-fluoro-2-methoxyphenyl)picolinic acid] | 95 to 100

Same assay, conditions: Chenopodium album, post-emergence, 336 h, CHEAL: lambsquarters (Chenopodium album), application rate 140 (kg ai/ha; footnote: g ai/ha), read-out: Visual Growth Reduction (%) 14 Days After Application CHEAL

Row | Structure (SMILES) | pest or weed control at 140 g/ha [%]
8 | COc1c(-c2cc(N)c(Cl)c(C(=O)O)n2)ccc(Cl)c1F [Compound 84, 4-amino-3-chloro-6-(4-chloro-3-fluoro-2-methoxyphenyl)picolinic acid] | 95 to 100

Same assay, conditions: Euphorbia heterophylla, post-emergence, 336 h, EPHHL: wild poinsettia (Euphorbia heterophylla), application rate 70 (kg ai/ha; footnote: g ai/ha), read-out: Visual Growth Reduction (%) 14 Days After Application EPHHL

Row | Structure (SMILES) | pest or weed control at 70 g/ha [%]
9 | COc1c(-c2cc(N)c(Cl)c(C(=O)O)n2)ccc(Cl)c1F [Compound 84, 4-amino-3-chloro-6-(4-chloro-3-fluoro-2-methoxyphenyl)picolinic acid] | 0 to 29

Same assay, conditions: Euphorbia heterophylla, post-emergence, 336 h, EPHHL: wild poinsettia (Euphorbia heterophylla), application rate 140 (kg ai/ha; footnote: g ai/ha), read-out: Visual Growth Reduction (%) 14 Days After Application EPHHL

Row | Structure (SMILES) | pest or weed control at 140 g/ha [%]
10 | COc1c(-c2cc(N)c(Cl)c(C(=O)O)n2)ccc(Cl)c1F [Compound 84, 4-amino-3-chloro-6-(4-chloro-3-fluoro-2-methoxyphenyl)picolinic acid] | 0 to 29

Same assay, conditions: Helianthus annuus, post-emergence, 336 h, HELAN: sunflower (Helianthus annuus), application rate 70 (kg ai/ha; footnote: g ai/ha), read-out: Visual Growth Reduction (%) 14 Days After Application HELAN

Row | Structure (SMILES) | pest or weed control at 70 g/ha [%]
11 | COc1c(-c2cc(N)c(Cl)c(C(=O)O)n2)ccc(Cl)c1F [Compound 84, 4-amino-3-chloro-6-(4-chloro-3-fluoro-2-methoxyphenyl)picolinic acid] | 85 to 94

Same assay, conditions: Helianthus annuus, post-emergence, 336 h, HELAN: sunflower (Helianthus annuus), application rate 140 (kg ai/ha; footnote: g ai/ha), read-out: Visual Growth Reduction (%) 14 Days After Application HELAN

Row | Structure (SMILES) | pest or weed control at 140 g/ha [%]
12 | COc1c(-c2cc(N)c(Cl)c(C(=O)O)n2)ccc(Cl)c1F [Compound 84, 4-amino-3-chloro-6-(4-chloro-3-fluoro-2-methoxyphenyl)picolinic acid] | 85 to 94

Same assay, conditions: Viola tricolor, post-emergence, 336 h, VIOTR: wild pansy (Viola tricolor), application rate 70 (kg ai/ha; footnote: g ai/ha), read-out: Visual Growth Reduction (%) 14 Days After Application VIOTR

Row | Structure (SMILES) | pest or weed control at 70 g/ha [%]
13 | COc1c(-c2cc(N)c(Cl)c(C(=O)O)n2)ccc(Cl)c1F [Compound 84, 4-amino-3-chloro-6-(4-chloro-3-fluoro-2-methoxyphenyl)picolinic acid] | 95 to 100

Same assay, conditions: Viola tricolor, post-emergence, 336 h, VIOTR: wild pansy (Viola tricolor), application rate 140 (kg ai/ha; footnote: g ai/ha), read-out: Visual Growth Reduction (%) 14 Days After Application VIOTR

Row | Structure (SMILES) | pest or weed control at 140 g/ha [%]
14 | COc1c(-c2cc(N)c(Cl)c(C(=O)O)n2)ccc(Cl)c1F [Compound 84, 4-amino-3-chloro-6-(4-chloro-3-fluoro-2-methoxyphenyl)picolinic acid] | 95 to 100

What follows are compounds tested on Key Grass and Sedge Weeds as well as Grass Crops (assay: Post-Emergent Test II (Table 6)). Details: post-emergence, 336 h, CYPSS, 70 g ai/ha, 14 days after application, read-out: Visual Growth Reduction (%) 14 Days After Application CYPSS.
Assay type: in vivo
In short: as §1

Row | Structure (SMILES) | pest or weed control at 70 g/ha [%]
15 | COc1c(-c2cc(N)c(Cl)c(C(=O)O)n2)ccc(Cl)c1F [Compound 84, 4-amino-3-chloro-6-(4-chloro-3-fluoro-2-methoxyphenyl)picolinic acid] | 0 to 29
